Experimental findings from US12558428B2, “Heterobifunctional compounds and their use in treating disease” (Halda Therapeutics OpCo, Inc., priority 2024, dated 2026) are described below.

Read-outs that look alike come from different tables or passages of the source. Some results are limits rather than exact numbers.

Holding throughout (assay type): cell-based
The test system of test [1] is T-Rex 293 cells having increased expression of estrogen receptor alpha protein. The test can be described thus: Cellular growth inhibition assay, T-Rex 293 cells, (+) doxycycline. Particulars: T-REx-293, 72 h, 72 hours. The procedure, abridged: (§1)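 Viability read-out was CellTiter-Glo 2.0 luminescence after 72 h compound exposure, normalized to zero luminescence and fitted by four-parameter regression to give GI50. Cells were an ERα-inducible T-Rex 293 clone cultured with or without 3 ng/mL doxycycline in charcoal-stripped, phenol red-free medium.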

Test [2] concerns T-Rex 293 cells lacking increased expression of estrogen receptor alpha protein. The test can be described thus: Cellular growth inhibition assay, T-Rex 293 cells, (−) doxycycline. Particulars: T-REx-293, 72 h, 72 hours. The procedure, abridged:
as §1

Test [3] has as its system MCF7 cells (ATCC #HTB-22). The test can be described thus: Cellular growth inhibition assay, MCF7 cells purchased from ATCC. Particulars: Homo sapiens, MCF7, 144 h, Table 8-A; MCF7 cells purchased from ATCC; six days; CellTiter-Glo; read-out: GI50. The procedure, abridged:
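MCF7 cells in RPMI 1640 with 10% FBS and 0.2 U/ml insulin, seeded at 1,500 cells/well (ATCC) or 225 cells/well (ECACC). Compounds added 24 h later, then 6 days at 37° C. Viability by CellTiter-Glo 2.0 luminescence. GI50 from four-parameter fit.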
On the technique in general: ATP-based viability assays read luminescence as a measure of living cells.

Setting [4] is: Table 7-A, T-Rex 293 cells with doxycycline (increased ERα expression), CellTiter-Glo, read-out: (+) Dox GI50.
The mark [5] stands for this setting: Table 7-A, T-Rex 293 cells without doxycycline (lacking increased ERα expression), CellTiter-Glo, read-out: (−) Dox GI50.

The term GI50 denotes the concentration that inhibits growth by half. As to `COc1cc(N2CCN(CC3(O)CCN(c4cc(F)c(C5=N[C@@H](C)c6nnc(C)n6-c6sc(C)c(C)c65)cc4F)CC3)CC2)c(F)cc1[C@@H]1c2ccc(O)cc2CC[C@@H]1c1ccccc1` [III-341, 1-(2,5-difluoro-4-((6S)-2,3,6,9-tetramethyl-6H-thieno[3,2-f][1,2,4]triazolo[4,3-a][1,4]diazepin-4-yl)phenyl)-4-((4-(2-fluoro-4-((1S,2S)-6-hydroxy-2-phenyl-1,2,3,4-tetrahydronaphthalen-1-yl)-5-methoxyphenyl)piperazin-1-yl)methyl)piperidin-4-ol], the GI50 is less than 50 nM in test [1] (setting [4]), greater than 2500 nM in test [2] (setting [5]) and less than 50 nM in test [3].
On to `Cc1sc2c(c1C)C(c1ccc(N3CCC(CN4CCN(c5ccc([C@H]6c7ccc(O)cc7CC[C@H]6c6ccccc6)cc5)CC4)CC3)cc1)=N[C@@H](C)c1nnc(C)n1-2` [III-6], for which the GI50 in test [1] (setting [4]) lay in the range of 50 to 500 nM; in test [2] (setting [5]), 500 to 2500 nM; in test [3] it was 50 to 500 nM.
Regarding `COc1cc(N2CCN(CC3(O)CCN(c4ccc(C5=N[C@@H](C)c6nnc(C)n6-c6sc(C)c(C)c65)cc4)CC3)CC2)ccc1[C@@H]1c2ccc(O)cc2CC[C@@H]1c1ccc(F)cc1` (single isomer, unassigned) [III-276], the values for the GI50 in test [1] (setting [4]), in test [2] (setting [5]) and in test [3] were less than 50 nM, 500 to 2500 nM and less than 50 nM, respectively.
On to `Cc1sc2c(c1C)C(c1ccc(N3CCCC(CN(C)CCOc4ccc([C@@H]5c6ccc(O)cc6CC[C@@H]5c5ccccc5)cc4)C3)cc1)=NC(Cc1ncco1)c1nnc(C)n1-2` (stereo partly drawn) [III-44], for which the results for the GI50 in test [1] (setting [4]), in test [2] (setting [5]) and in test [3] were 50 to 500 nM, 500 to 2500 nM and 50 to 500 nM, respectively.
Consider `Cc1sc2c(c1C)C(c1ccc(N3CCC4(CC3)CC(NCCOc3ccc([C@@H]5c6ccc(O)cc6CC[C@@H]5c5ccccc5)cc3)C4)cc1)=NC(Cc1ncco1)c1nnc(C)n1-2` (stereo partly drawn) [III-65], for which the concentration for 50% growth inhibition (GI50) in test [1] (setting [4]) was less than 50 nM; in test [2] (setting [5]), 50 to 500 nM; in test [3], 50 to 500 nM.
Regarding `Cc1sc2c(c1C)C(c1ccc(N3CCC(O)(CN4CCN(c5ccc([C@H]6c7ccc(O)cc7CC[C@H]6c6ccccc6)nn5)CC4)CC3)cc1)=N[C@@H](C)c1nnc(C)n1-2` [III-218], the figures for the GI50 in test [1] (setting [4]), in test [2] (setting [5]) and in test [3] were less than 50 nM, 50 to 500 nM and 50 to 500 nM, respectively.
Take `Cc1sc2c(c1C)C(c1ccc(Cl)cc1)=N[C@@H](CC(=O)NCCCCOCCOc1ccc(C(=O)c3c(-c4ccc(Br)cc4)sc4cc(O)ccc34)cc1)c1nnc(C)n1-2` [I-28, (S)—N-(4-(2-(4-(2-(4-bromophenyl)-6-hydroxybenzo[b]thiophene-3-carbonyl)phenoxy)ethoxy)butyl)-2-(4-(4-chlorophenyl)-2,3,9-trimethyl-6H-thieno[3,2-f][1,2,4]triazolo[4,3-a][1,4]diazepin-6-yl)acetamide]: the GI50 in test [1] (T-Rex 293 cells with doxycycline-induced ERα expression, CellTiter-Glo 2.0, read-out: (+) Dox TRex ERa (GI50)) fell in the range of 50 to 500 nM; in test [2] (T-Rex 293 cells without doxycycline, CellTiter-Glo 2.0, read-out: (−) Dox TRex ERa (GI50)), 500 to 2500 nM; in test [3], 50 to 500 nM.
For the compound `Cc1sc2c(c1C)C(c1ccc(N3CCC(O)(CN4CCN(c5ccc([C@@H]6c7ccc(O)cc7CC[C@@H]6c6ccc(F)cc6)c(Cl)c5)CC4)CC3)cc1)=N[C@@H](C)c1nnc(C)n1-2` [III-305], the GI50 in test [1] (setting [4]) was less than 50 nM; in test [2] (setting [5]) it was 500 to 2500 nM; in test [3] it was less than 50 nM.
On to `Cc1sc2c(c1C)C(c1ccc(N3CC4(CC(CN5CCN(c6ccc([C@@H]7c8ccc(O)cc8CC[C@@H]7c7ccc(F)cc7)cc6F)CC5)C4)C3)cc1)=N[C@@H](C)c1nnc(C)n1-2` [III-282], for which the GI50 is less than 50 nM in test [1] (setting [4]), 50 to 500 nM in test [2] (setting [5]) and less than 50 nM in test [3].
Consider `Cc1sc2c(c1C)C(c1ccc(N3CCC[C@@H](CNCCOc4ccc([C@@H]5c6ccc(O)cc6CC[C@@H]5c5ccccc5)cc4)C3)cc1)=NC(Cc1ncco1)c1nnc(C)n1-2` (stereo partly drawn) [III-54], for which the GI50 in test [1] (setting [4]), in test [2] (setting [5]) and in test [3] was 50 to 500 nM in each case.
As to `Cc1sc2c(c1C)C(c1ccc(CC3CC4(CCN(c5ccc([C@@H]6c7ccc(O)cc7CC[C@@H]6c6ccccc6)cc5)CC4)C3)cc1)=N[C@H](Cc1ncco1)c1nnc(C)n1-2` [III-4, (5R,6S)-6-phenyl-5-(4-(2-(4-((R)-2,3,9-trimethyl-6-(oxazol-2-ylmethyl)-6H-thieno[3,2-f][1,2,4]triazolo[4,3-a][1,4]diazepin-4-yl)benzyl)-7-azaspiro[3.5]nonan-7-yl)phenyl)-5,6,7,8-tetrahydronaphthalen-2-ol], the GI50 in test [1] (setting [4]) is 500 to 2500 nM; in test [2] (setting [5]) it was greater than 2500 nM; in test [3], greater than 2500 nM.
As for `CC1=C(c2c(F)cc(F)cc2F)[C@@H](c2ccc(N3CCC(CN4CCC5(CC4)CN(c4ccc(C6=N[C@@H](C)c7nnc(C)n7-c7sc(C)c(C)c76)cc4)C5)CC3)cc2)Oc2ccc(O)cc21` [V-20], the figures for the 50% growth inhibitory concentration (GI50) in test [1] (setting [4]), in test [2] (setting [5]) and in test [3] were less than 50 nM, 500 to 2500 nM and 50 to 500 nM, respectively.
On the same counts, the results for `Cc1sc2c(c1C)C(c1ccc(N3CCN(CC4CCN(c5ncc([C@@H]6c7ccc(O)cc7CC[C@@H]6c6ccccc6)cn5)CC4)CC3)cc1)=N[C@@H](Cc1ncco1)c1nnc(C)n1-2` [III-128] are less than 50 nM, 50 to 500 nM and 50 to 500 nM.
Taken in the same sequence, the figures for `Cc1sc2c(c1C)C(c1ccc(N3CC4(C3)CC(O)(CN3CCN(c5cc(F)c([C@@H]6c7ccc(O)cc7CC[C@@H]6c6ccc(F)cc6)c(F)c5)CC3)C4)cc1)=N[C@@H](C)c1nnc(C)n1-2` [III-279] were less than 50 nM, 500 to 2500 nM and less than 50 nM.
Taken in the same sequence, the figures for `Cc1sc2c(c1C)C(c1ccc(N3CC(CN4CCC(O)(CN5CC(c6ccc([C@@H]7c8ccc(O)cc8CC[C@@H]7c7ccccc7)cc6)C5)CC4)C3)cc1)=N[C@@H](C)c1nnc(C)n1-2` [III-177] were less than 50 nM, 50 to 500 nM and 50 to 500 nM.
In the case of `Cc1sc2c(c1C)C(c1ccc(C#CC3CC4(CCN(c5ccc([C@H]6c7ccc(O)cc7CC[C@H]6c6ccccc6)cc5)CC4)C3)cc1)=N[C@H](Cc1ncco1)c1nnc(C)n1-2` [III-20], the GI50 in test [1] (setting [4]), in test [2] (setting [5]) and in test [3] was greater than 2500 nM in each case.
Take `Cc1sc2c(c1C)C(c1ccc(N3CC(CC4(O)CCN(CC5CN(c6ccc([C@@H]7c8ccc(O)cc8CC[C@@H]7c7ccccc7)cc6)C5)CC4)C3)cc1)=N[C@@H](C)c1nnc(C)n1-2` [III-235]: the GI50 is less than 50 nM in test [1] (setting [4]), 500 to 2500 nM in test [2] (setting [5]) and less than 50 nM in test [3].
On to `CC1=C(c2c(F)cc(F)cc2F)[C@@H](c2ccc(N3CCN(CC4CCN(c5ccc(C6=N[C@H](C)c7nnc(C)n7-c7sc(C)c(C)c76)cc5)CC4)CC3)cc2)Oc2ccc(O)cc21` [V-25], for which the GI50 in test [1] (setting [4]), in test [2] (setting [5]) and in test [3] was greater than 2500 nM each time.
Regarding `Cc1sc2c(c1C)C(c1ccc(N3CCC(O)(CN4CCN(c5ccc([C@@H]6c7ccc(O)cc7CC[C@@H]6c6ccc(F)cc6)cc5F)CC4)CC3)cc1)=N[C@@H](C)c1nnc(C)n1-2` [III-251, 4-((4-(2-fluoro-4-((1R,2S)-2-(4-fluorophenyl)-6-hydroxy-1,2,3,4-tetrahydronaphthalen-1-yl)phenyl)piperazin-1-yl)methyl)-1-(4-((S)-2,3,6,9-tetramethyl-6H-thieno[3,2-f][1,2,4]triazolo[4,3-a][1,4]diazepin-4-yl)phenyl)piperidin-4-ol], the GI50 in test [1] (setting [4]) was less than 50 nM; in test [2] (setting [5]) it was 500 to 2500 nM; in test [3], less than 50 nM.
